Laboratory results as given in patent publication US4874898A, “Novel substituted anthrasteroid derivatives” (Shionogi and Co., Ltd. Patent Department, priority 1987, dated 1989).

Columns and labels:
[1] = system: Shionogi-carcinoma 115 (SC-115); test: Assay for growth inhibitory activity against androgen-dependent tumor (Shionogi-carcinoma 115); type: in vivo, mice (castrated); conditions: 14 days
Text: The followings show an assay for antiandrogenic activity against androgen-dependent tumor, Shionogi-carcinoma 115 (SC-115). The SC-115 is a tumor cell which grows in the presence of an androgen and its hormone dependency is widely known as a prostatic cancer model. Therefore, the androgenic activity is also estimated by examining the growth inhibition effect against this tumor.
Assay for growth inhibitory activity against androgen-dependent tumor (Shionogi-carcinoma 115)
The six week-old mice were castrated and […] of Shionogi-carcinoma tumor pieces was grafted into the back subcutaneously on the fifth day from the castration. The grafted mice were divided into groups, each consisting of seven mice, and the drug treatment was started immediately after the graft. One group was intact with any drug, and the 2nd group was treated subcutaneously with 0.1 mg of testosterone propionate a day. The other groups were treated subcutaneously with a suspension of 0.1 mg of testosterone propionate and 0.1 to 2.0 mg per day of test compounds a day as a conventional steroid solution. This treatment was carried out for 14 days, successively. The mice were killed next day of the last treatment and the tumor was taken out to weigh.

[2] = system: ventral prostates; test: Assay for Antiandrogenic Activity (Subcutaneous administration), ventral prostate weight; type: in vivo, SD-JCL male rats (castrated); conditions: for I. R. (%) B* (Inhibition rate, prostate) / Weight (Mean mg ± S.E.) B* (prostate): 7 days; for I. R. (%) B* (Inhibition rate, prostate): with testosterone propionate 0.02 mg/day, Table 1-1; for Weight (Mean mg ± S.E.) B* (prostate) / I. R. (%) B* (prostate): Table 1-2
Experimental: (§1) Assay for Antiandrogenic Activity (Subcutaneous administration)
(§2) The three week-old SD-JCL male rats were castrated and the drug treatment was started from three days after the castration. The rats were divided into groups; one group consists of six rats. One group was intact with any drug, the 2nd group was treated subcutaneously with a solution or suspension of 0.02 mg of testosterone propionate in sesame oil a day, and the other groups was treated with 0.1 to 3 mg of the test compound and 0.02 mg of testosterone propionate in sesame oil a day. This treatment was carried out for 7 days, successively. The rats were killed next day of the last treatment and the seminal vesicles and ventral prostates were taken out and weighed. Antiandrogenic activity of the test compounds were estimated as […] of seminal vesicles and ventral prostates induced by testosterone propionate.

[3] = system: seminal vesicles; test: Assay for Antiandrogenic Activity (Subcutaneous administration), seminal vesicle weight; type: in vivo, SD-JCL male rats (castrated); conditions: for I. R. (%) A* (Inhibition rate, seminal vesicle) / Weight (Mean mg ± S.E.) A* (seminal vesicle): 7 days; for I. R. (%) A* (Inhibition rate, seminal vesicle): with testosterone propionate 0.02 mg/day, Table 1-1; for Weight (Mean mg ± S.E.) A* (seminal vesicle) / I. R. (%) A* (seminal vesicle): Table 1-2
Experimental: as §1, §2

[4] = system: ventral prostates; test: Assay for Antiandrogenic Activity (Oral Administration), ventral prostate weight; type: in vivo, SD-JCL male rats (castrated); conditions: 3 mg orally, 7 days, with testosterone propionate 0.02 mg/day s.c.; Table 2
Experimental: (§3) Assay for Antiandrogenic Activity (Oral Administration)
(§4) The three week-old SD-JCL male rats were castrated and the drug treatment was started from three days after the castration. The rats were divided into groups; one group consists of six rats. One group was treated with 0.02 mg of testosterone propionate in sesame oil a day by injecting subcutaneously and the other groups were treated with 0.02 mg of testosterone propionate and simultaneously treated orally with a suspension of 3 mg of the test compound in sesame oil. The castrated control group was treated with sesame oil. This treatment was continued for 7 days, successively. The rats were killed 24 hours after the last treatment and the seminal vesicles and ventral prostates were taken out and weighed.

[5] = system: seminal vesicles; test: Assay for Antiandrogenic Activity (Oral Administration), seminal vesicle weight; type: in vivo, SD-JCL male rats (castrated); conditions: 3 mg orally, 7 days, with testosterone propionate 0.02 mg/day s.c.; Table 2
Experimental: as §3, §4

[6] = 0.1 mg/day s.c., with testosterone propionate 0.1 mg/day
[7] = 0.5 mg/day s.c., with testosterone propionate 0.1 mg/day
[8] = 2.0 mg/day s.c., with testosterone propionate 0.1 mg/day
[9] = 0.1 mg/day s.c., with testosterone propionate
[10] = 0.3 mg/day s.c., with testosterone propionate
[11] = 1 mg/day s.c., with testosterone propionate
[12] = 3 mg/day s.c., with testosterone propionate
[13] = testosterone propionate alone, 0.02 mg/day s.c.

SMILES: CC1=C2CCC3(C)C(O)C(Br)CC3C2CC2CCC(=O)C=C12 (stereo not shown)
- Inhibition Rate (%) of tumor weight [1, 6]: 11%
- Tumor Weight (Mean mg ± S.E.) [1, 6]: 2871 ± 277 mg
- Inhibition Rate (%) of tumor weight [1, 7]: 40%
- Tumor Weight (Mean mg ± S.E.) [1, 7]: 1950 ± 144 mg
- Inhibition Rate (%) of tumor weight [1, 8]: 69%
- Tumor Weight (Mean mg ± S.E.) [1, 8]: 1004 mg

SMILES: CC1=C2C=CC3(C)C(O)CCC3C2CC2CCC(=O)C=C12 (stereo not shown)
- I. R. (%) B* (Inhibition rate, prostate) ([2]; 1 mg/day s.c.): 44%
- I. R. (%) A* (Inhibition rate, seminal vesicle) ([3]; 1 mg/day s.c.): 69%

SMILES: CC1=C2CC3(CCC2CC2C1=CCC1(C)C(=O)CCC21)OCCO3 (stereo not shown)
- I. R. (%) B* (prostate) [4]: 25%
- I. R. (%) A* (seminal vesicle) [5]: 26%

SMILES: CCC(=O)OC1CCC2C3CC4CCC(=O)C=C4C(C)=C3CCC12C (stereo not shown)
- I. R. (%) B* (Inhibition rate, prostate) ([2]; 1 mg/day s.c.): 50%
- I. R. (%) A* (Inhibition rate, seminal vesicle) ([3]; 1 mg/day s.c.): 74%

SMILES: CC1=C2CCC3(C)C(O)CCC3C2CC2CCC(=O)C=C12 (stereo not shown) [drawing 52]
- Weight (Mean mg ± S.E.) B* (prostate) [2, 9]: 37.9 ± 3.0 mg
- Weight (Mean mg ± S.E.) B* (prostate) [2, 10]: 37.3 ± 3.0 mg
- Weight (Mean mg ± S.E.) B* (prostate) [2, 11]: 27.5 ± 2.2 mg
- I. R. (%) B* (prostate) [2, 11]: 43%
- Weight (Mean mg ± S.E.) B* (prostate) [2, 12]: 23.8 ± 1.6 mg
- I. R. (%) B* (prostate) [2, 12]: 55%
- Weight (Mean mg ± S.E.) A* (seminal vesicle) [3, 9]: 19.9 ± 0.6 mg
- I. R. (%) A* (seminal vesicle) [3, 9]: 31%
- Weight (Mean mg ± S.E.) A* (seminal vesicle) [3, 10]: 20.7 ± 1.3 mg
- I. R. (%) A* (seminal vesicle) [3, 10]: 27%
- Weight (Mean mg ± S.E.) A* (seminal vesicle) [3, 11]: 15.0 ± 0.7 mg
- I. R. (%) A* (seminal vesicle) [3, 11]: 56%
- Weight (Mean mg ± S.E.) A* (seminal vesicle) [3, 12]: 11.4 ± 0.8 mg
- I. R. (%) A* (seminal vesicle) [3, 12]: 74%

SMILES: CC1=C2CCC3(C)C(O)C(F)CC3C2CC2CCC(=O)C=C12 (stereo not shown)
- I. R. (%) B* (Inhibition rate, prostate) ([2]; 1 mg/day s.c.): 52%
- I. R. (%) A* (Inhibition rate, seminal vesicle) ([3]; 1 mg/day s.c.): 77%

SMILES: CC1C2=CC(=O)CCC2CC2C1CCC1(C)C(O)CCC21 (stereo not shown)
- I. R. (%) A* (Inhibition rate, seminal vesicle) ([3]; 1 mg/day s.c.): 25%

SMILES: CCC(=O)O[C@H]1CC[C@H]2[C@@H]3CCC4=CC(=O)CC[C@]4(C)[C@H]3CC[C@]12C [Testosterone propionate, testosterone propionate, reference compound]
- Tumor Weight (Mean mg ± S.E.) ([1]; testosterone propionate alone, 0.1 mg/day s.c.): 3241 ± 456 mg
- Weight (Mean mg ± S.E.) B* (prostate) [2, 13]: 40.1 ± 1.3 mg
- Weight (Mean mg ± S.E.) A* (seminal vesicle) [3, 13]: 26.1 ± 0.8 mg

SMILES: CC1=C2CCC3(C)C(O)CCC3C2CC2CCC(=O)C=C12 (stereo not shown) [drawing 56]
- Inhibition Rate (%) of tumor weight [1, 6]: 48%
- Tumor Weight (Mean mg ± S.E.) [1, 6]: 1682 ± 177 mg
- Inhibition Rate (%) of tumor weight [1, 7]: 59%
- Tumor Weight (Mean mg ± S.E.) [1, 7]: 1343 ± 283 mg
- Inhibition Rate (%) of tumor weight [1, 8]: 92%
- Tumor Weight (Mean mg ± S.E.) [1, 8]: 255 mg

SMILES: CC1=C2CCC3(C)C(OC4=CCCCCCC4)CCC3C2CC2CCC(=O)C=C12 (stereo not shown)
- I. R. (%) B* (prostate) [4]: 34%
- I. R. (%) A* (seminal vesicle) [5]: 39%

SMILES: CC1=C2CCC3(C)C(O)C(CBr)CC3C2CC2CCC(=O)C=C12 (stereo not shown)
- I. R. (%) B* (prostate) [4]: 43%
- I. R. (%) A* (seminal vesicle) [5]: 51%

SMILES: CC1=C2CCC3(C)C(=O)CCC3C2CC2CCC(=O)C=C12 (stereo not shown)
- I. R. (%) B* (Inhibition rate, prostate) ([2]; 1 mg/day s.c.): 42%
- I. R. (%) A* (Inhibition rate, seminal vesicle) ([3]; 1 mg/day s.c.): 57%

SMILES: CC1=C2CCC3(C)C(CCC3(C)O)C2CC2CCC(=O)C=C12 (stereo not shown)
- I. R. (%) B* (Inhibition rate, prostate) ([2]; 1 mg/day s.c.): 41%
- I. R. (%) A* (Inhibition rate, seminal vesicle) ([3]; 1 mg/day s.c.): 67%
